From patent US6355410B1, “Method of reducing cell proliferation by inhibiting the Na+/H+ exchanger and inducing apoptosis” (priority 1998, dated 2002)

How the values were obtained:
[1] = tested on: normal peripheral blood cells; assay: Intracellular pH (flow cytometry and FRIM) of normal peripheral blood cells incubated with HMA; assay type: cell-based, human
Experimental: Normal peripheral blood cells were incubated in the absence or presence of the NHE-1 inhibitor, 5-(N,N-hexamethylene)-amiloride (HMA), at concentrations ranging from 10^−7M to 10^−4M for up to 5h. Cells were then aliquoted so that pHi and apoptotic measurements could be performed. In these experiments, pHi was measured using both flow cytometry and fluorescence ratio imaging microscopy (FRIM). […] The proportion of necrotic cells measured by propidium iodide (PI) remained constant at about 5% in the absence or presence of HMA for each time point measured. […] It is interesting to note that both methods measured about 25% apoptotic cells when pHi was reduced to about 6.8. […]
(§1) Measurement of pHi for hemopoietic cells has been described in detail elsewhere (8). Briefly, intracellular pH was measured by both flow cytometry and FRIM by incubating cells with carboxy SemiNaphthoRhodaFluor-1 acetoxymethyl ester, acetate (carboxy SNARF-1 AM, Molecular Probes, Eugene, Oreg.) for 15 min at room temperature. […] Flow cytometric results were analyzed using WinList Software (Verity Software House Inc. Topsham, ME) to obtain fluorescence ratio measurements. For both flow cytometry and FRIM analysis, the calibration curves were obtained and sample pHi values determined from the fluorescence ratio values using Table Curve software (SPSS Inc., Chicago, Ill.). […]

[2] = tested on: normal peripheral blood cells; assay type: cell-based, human
Experimental: Normal peripheral blood cells were incubated in the absence or presence of the NHE-1 inhibitor, 5-(N,N-hexamethylene)-amiloride (HMA), at concentrations ranging from 10^−7M to 10^−4M for up to 5h. Cells were then aliquoted so that pHi and apoptotic measurements could be performed. In these experiments, pHi was measured using both flow cytometry and fluorescence ratio imaging microscopy (FRIM). […] The proportion of necrotic cells measured by propidium iodide (PI) remained constant at about 5% in the absence or presence of HMA for each time point measured. […] It is interesting to note that both methods measured about 25% apoptotic cells when pHi was reduced to about 6.8. As shown in the next section, a pHi of 6.8 appears to be a critical value below which increased apoptosis occurs.
Two methods were used to determine if reduction in pHi induced apoptosis. The first used annexin-V conjugated to fluorescein isothiocyanate (FITC) (Pharmingen, San Diego, Calif.) to determine the translocation of phosphatidylserine from the inside to the outside of the plasma membrane. Cells were counter-stained with propidium iodide (PI) to determine the proportion of necrotic cells. Cell staining was performed according to the manufacturer's instructions. The second technique used terminal deoxynucleotidyl transferase (TdT)-mediated dUTP nick-end labeling (TUNEL) of fragmented DNA. […]

KG-1a cells [3] = assay: Intracellular pH of KG-1a cells incubated with HMA; assay type: cell-based, human; conditions: 10^-4M HMA, 5h, n=4, without HMA 6.9±0.08 after 5h
Experimental: (§2) Leukaemic cell lines (KG-1a and CEM) were incubated for varying periods of time with 10^−4M HMA and pHi and apoptosis measured. For both cell lines, in the absence of HMA, pHi ranged from 7.43±0.1 at time zero to 6.9±0.08 after 5h of incubation. However, after 5h with HMA, the pHi had decreased to 5.6±0.07 (n=4) for KG-1a and 6.1±0.06 (n=4) for CEM cells. In the absence of HMA, the percentage of KG-1a and CEM cells undergoing apoptosis, measured by annexin-V, ranged from 2% to 9% for the duration of the experiment, whereas by 5h in the presence of HMA, the percentage of KG-1a or CEM cells undergoing apoptosis ranged from 70-80%. […]
as §1

CEM cells [4] = assay: Intracellular pH of CEM cells incubated with HMA; assay type: cell-based, human; conditions: 10^-4M HMA, 5h, n=4, without HMA 6.9±0.08 after 5h
Experimental: as §2, §1

KG-1a cells [5] = assay: Apoptosis (annexin-V) of KG-1a cells incubated with HMA; assay type: cell-based, human; conditions: 10^-4M HMA, 5h, without HMA 2% to 9%
Experimental: (§3) Leukaemic cell lines (KG-1a and CEM) were incubated for varying periods of time with 10^−4M HMA and pHi and apoptosis measured. For both cell lines, in the absence of HMA, pHi ranged from 7.43±0.1 at time zero to 6.9±0.08 after 5h of incubation. However, after 5h with HMA, the pHi had decreased to 5.6±0.07 (n=4) for KG-1a and 6.1±0.06 (n=4) for CEM cells. In the absence of HMA, the percentage of KG-1a and CEM cells undergoing apoptosis, measured by annexin-V, ranged from 2% to 9% for the duration of the experiment, whereas by 5h in the presence of HMA, the percentage of KG-1a or CEM cells undergoing apoptosis ranged from 70-80%.
(§4) The following human leukemic cell lines were originally obtained from ATCC (Rockville, Md.): KG-1a (BM acute myelogenous leukemia), Jurkat (acute T-cell leukemia), Molt-4 (PB acute lymphoblastic leukemia), CEM (PB acute lymphoblastic leukemia), K562 (chronic myeloid leukemia), THP-1 (acute monocytic leukemia), Nalm-6 (B-cell leukemia). All cell lines were cultured in Dulbecco's Modified Eagles Medium (DMEM) containing 10% heat-inactivated fetal bovine serum (FBS). Only cells in log phase growth were used.
(§5) Two methods were used to determine if reduction in pHi induced apoptosis. […]

CEM cells [6] = assay: Apoptosis (annexin-V) of CEM cells incubated with HMA; assay type: cell-based, human; conditions: 10^-4M HMA, 5h, without HMA 2% to 9%
Experimental: as §3, §4, §5

KG-1a cells [7] = assay: RNA degradation in KG-1a cells by denaturing RNA gel electrophoresis; assay type: cell-based, human; conditions: 10^-4M HMA
[8] = tested on: primary ALL patient leukaemic cells; assay: Intracellular pH (FRIM and flow cytometry) of fresh ALL patient leukaemic cells incubated with HMA; assay type: cell-based, human; conditions: 10^-4M HMA, 1h, 3h and 5h, values set at 5.0
Experimental: (§6) Intracellular pH was measured by both FRIM and flow cytometry, while apoptosis was measured by annexin-V and TUNEL. […] For this reason, pHi values for 1h, 3h and 5h were set at 5.0. After 1h, the proportion of cells incubated with HMA undergoing apoptosis was about 85% using annexin-V and about 60% using the TUNEL technique.
as §1, with “temperature. SNARF is excited at 488 nm and emits at 580 nm and 640 nm. The ratio of the emission wavelengths 640/580 was used (8) to estimate the pHi from a calibration curve. The calibration curve was performed using the nigericin clamp technique (21).” for “temperature.”

[9] = tested on: primary ALL patient leukaemic cells; assay: Apoptosis (annexin-V and TUNEL) of fresh ALL patient leukaemic cells incubated with HMA; assay type: cell-based, human
Experimental: as §6
Two methods were used to determine if reduction in pHi induced apoptosis. The first used annexin-V conjugated to fluorescein isothiocyanate (FITC) (Pharmingen, San Diego, Calif.) to determine the translocation of phosphatidylserine from the inside to the outside of the plasma membrane. Cells were counter-stained with propidium iodide (PI) to determine the proportion of necrotic cells. Cell staining was performed according to the manufacturer's instructions. The second technique used terminal deoxynucleotidyl transferase (TdT)-mediated dUTP nick-end labeling (TUNEL) of fragmented DNA. Fluorochrome (FITC)-labelling of DNA (Boehringer Mannhein, Germany) was performed according to the manufacturer's instructions and measurements performed by flow cytometry.
The amiloride analogue, HMA (Sigma Chemicals, St. Louis, Mo.) was dissolved in dimethylsulphoxide (DMSO) and a stock solution (10^−3M) prepared in DMEM. Cells were incubated at concentrations ranging from 10^−7M to 10^−4M for varying periods of time specified in the results. After incubation, cells were washed and aliquoted according to the type of measurement (pHi or apoptosis) performed. Controls included cells not treated with HMA.

NHE-1 = NHE-1 (Homo sapiens, UniProt P19634); conditions: literature reference 19; cited from earlier work
NHE-1, sequence (P19634 whole entry, species assumed): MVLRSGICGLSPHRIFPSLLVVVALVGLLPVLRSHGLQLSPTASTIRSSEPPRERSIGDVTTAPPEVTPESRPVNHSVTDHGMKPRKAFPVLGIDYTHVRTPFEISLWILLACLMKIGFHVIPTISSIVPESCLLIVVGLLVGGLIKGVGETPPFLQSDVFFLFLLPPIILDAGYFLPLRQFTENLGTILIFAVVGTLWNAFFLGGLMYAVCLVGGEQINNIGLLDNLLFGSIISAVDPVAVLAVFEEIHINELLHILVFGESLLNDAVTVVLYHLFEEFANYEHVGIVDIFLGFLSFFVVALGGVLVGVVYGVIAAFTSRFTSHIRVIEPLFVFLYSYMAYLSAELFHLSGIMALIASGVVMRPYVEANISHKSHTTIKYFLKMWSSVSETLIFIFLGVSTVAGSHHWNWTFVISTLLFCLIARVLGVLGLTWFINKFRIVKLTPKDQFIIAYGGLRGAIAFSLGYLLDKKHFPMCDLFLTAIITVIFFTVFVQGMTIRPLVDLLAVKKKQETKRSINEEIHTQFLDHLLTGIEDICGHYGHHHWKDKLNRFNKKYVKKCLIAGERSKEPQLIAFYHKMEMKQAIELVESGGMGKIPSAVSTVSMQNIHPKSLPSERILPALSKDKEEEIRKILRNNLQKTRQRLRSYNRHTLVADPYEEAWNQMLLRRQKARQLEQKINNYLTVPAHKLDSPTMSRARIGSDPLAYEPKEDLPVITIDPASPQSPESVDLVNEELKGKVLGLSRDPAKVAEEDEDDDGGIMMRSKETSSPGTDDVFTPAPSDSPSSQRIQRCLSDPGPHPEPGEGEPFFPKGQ

[10] = tested on: normal peripheral blood (PB) cells; assay: Intracellular pH (SNARF, flow cytometry) of peripheral blood incubated with phorbol ester; assay type: cell-based, human; conditions: PB incubated with phorbol ester (10^-6 M PMA, 5 min); unstimulated PB 7.03±0.04
Experimental: The pHi and the percentage of cells in S-phase of the cell cycle were simultaneously determined in aliquots of the same sample, using propidium iodide labeling. Prior to analysis, peripheral blood was also incubated with phorbol ester to activate the NHE-1. […] Furthermore, there was a direct correlation between pHi and proportion of cells in S-phase in both normal and neoplastic haemopoietic cells of various origins (FIG. 4). Thus, intracellular alkalinisation is associated with an increased proliferation and possibly transformation of haemopoietic cells. We hypothesized that unregulated proliferation of leukaemic cells might, at least in part, be due to suppression of normal apoptotic mechanisms. […]
Measurement of pHi for hemopoietic cells has been described in detail elsewhere (8). Briefly, intracellular pH was measured by both flow cytometry and FRIM by incubating cells with carboxy SemiNaphthoRhodaFluor-1 acetoxymethyl ester, acetate (carboxy SNARF-1 AM, Molecular Probes, Eugene, Oreg.) for 15 min at room temperature. […] Flow cytometric results were analyzed using WinList Software (Verity Software House Inc. Topsham, ME) to obtain fluorescence ratio measurements. For both flow cytometry and FRIM analysis, the calibration curves were obtained and sample pHi values determined from the fluorescence ratio values using Table Curve software (SPSS Inc., Chicago, Ill.).

[11] = tested on: normal peripheral blood (PB) cells; assay: Proportion of cells in S-phase (propidium iodide) of peripheral blood incubated with phorbol ester; assay type: cell-based, human; conditions: untreated PB 1.19%±0.34%
Experimental: The pHi and the percentage of cells in S-phase of the cell cycle were simultaneously determined in aliquots of the same sample, using propidium iodide labeling. Prior to analysis, peripheral blood was also incubated with phorbol ester to activate the NHE-1. […] Furthermore, there was a direct correlation between pHi and proportion of cells in S-phase in both normal and neoplastic haemopoietic cells of various origins (FIG. 4). Thus, intracellular alkalinisation is associated with an increased proliferation and possibly transformation of haemopoietic cells. We hypothesized that unregulated proliferation of leukaemic cells might, at least in part, be due to suppression of normal apoptotic mechanisms. In this case, inhibitors of the NHE-1 would be expected to induce apoptosis in leukaemic cells, and we therefore examined the effects of NHE-1 inhibitors upon such cells.
Normal PB cells were incubated for 5 min with 10^−6 M phorbol-12-myristate-13-acetate (PMA, Sigma Chemical Company, St. Louis, Mo.) to non-specifically activate the NHE-1. […]
The proportion of cells in S-phase of the cell cycle was determined using the propidium iodide technique using the CycleTEST Plus DNA reagent kit (Becton-Dickinson, San Jose, Calif.). Data were acquired by flow cytometry, and analyzed using the Modfit LT software program (Verity Software House Inc).

[12] = ALL patient cells, 10^-4M HMA, 1h

Structure (SMILES) | inhibition (decrease of pHi), time and concentration dependence ([1]; HMA 10^-7M to 10^-4M, up to 5h, flow cytometry and FRIM) | pHi reduced to ([1]; normal PB incubated with HMA, pHi at which about 25% apoptotic cells were measured) | proportion of apoptotic cells, time and concentration dependence ([2]; HMA 10^-7M to 10^-4M, up to 5h, annexin-V and TUNEL) | apoptotic cells ([2]; normal PB with HMA, both methods (annexin-V, TUNEL), when pHi reduced to about 6.8) | pHi (KG-1a cells [3]) | pHi (CEM cells [4]) | percentage of cells undergoing apoptosis, annexin-V (KG-1a cells [5]) | percentage of cells undergoing apoptosis, annexin-V (CEM cells [6]) | onset of RNA degradation after addition (KG-1a cells [7]) | time to total RNA degradation (KG-1a cells [7]) | pHi measured by flow cytometry [8] | proportion of cells undergoing apoptosis, TUNEL [9, 12] | proportion of cells undergoing apoptosis, annexin-V [9, 12] | apoptotic cells, both methods (annexin-V and TUNEL) ([9]; ALL patient cells, 10^-4M HMA, 5h) | sensitivity of primary ALL cells versus normal PB ([9]; differential effect of HMA between normal and acute lymphoblastic leukaemic cells) | time to induction of apoptosis ([9]; primary leukemic cells) | cells either dead or undergoing apoptosis ([9]; primary leukemic cells, between 3 and 5 h of incubation) | potency and specificity of NHE-1 inhibition relative to amiloride (NHE-1) | pHi [10] | proportion of cells in S-phase [11]
NC(N)=NC(=O)c1nc(Cl)c(N2CCCCCC2)nc1N [HMA, 5-(N,N-hexamethylene)-amiloride] | greatest inhibition occurred at 5h, using the highest HMA concentration | about 6.8 | greatest proportion of apoptotic cells was found after 5h incubation with 10^−4M HMA | about 25% | 5.6±0.07 | 6.1±0.06 | 70-80% | 70-80% | began to degrade between 30 min and 1h | ≤ 3 h | too low to calibrate | about 60% | about 85% | over 90% | greater sensitivity to HMA than normal PB | ≤ 1 h | more than 90% | greater potency and specificity of NHE-1 inhibition than amiloride itself |  | 
CCCCCCCCCCCCCC(=O)O[C@@H]1[C@@H](C)[C@@]2(O)[C@@H](C=C(CO)C[C@]3(O)C(=O)C(C)=C[C@@H]23)[C@@H]2C(C)(C)[C@]12OC(C)=O [phorbol ester, phorbol-12-myristate-13-acetate] |  |  |  |  |  |  |  |  |  |  |  |  |  |  |  |  |  |  | 7.32±0.043 | 8.7%±0.17%
CCN(c1nc(N)c(C(=O)N=C(N)N)nc1Cl)C(C)C [EIPA, 5-(N-ethyl-N-isopropyl) amiloride] |  |  |  |  |  |  |  |  |  |  |  |  |  |  |  |  |  | greater potency and specificity of NHE-1 inhibition than amiloride itself |  | 
